The numbers were not newly measured in patent US6472398B1, “Spiropiperidine derivatives as melanocortin receptor agonists” (Merck & Co., Inc., priority 2000, dated 2002), which cites them from elsewhere.

Series [1] relates to patients with erectile dysfunction. The note with it: for duration of effect / onset of action: after an oral dose; for share of patients with adequate response: oral, men with erectile dysfunction.
The test system of series [2] is males with psychogenic erectile dysfunction.
For another series, the system named is rodents. The note with it: ICV; NPY, ob/ob, agouti, fasted feeding models.

For `Cc1ccc(N(CC2=NCCN2)c2cccc(O)c2)cc1` [phentolamine], in series [1], the duration of effect was 2 h, the onset of action was 5 to 30 min and the “share of patients with adequate response” value is on record as 35-40%.

For the molecule `CCCc1nn(C)c2c(=O)[nH]c(-c3cc(S(=O)(=O)N4CCN(C)CC4)ccc3OCC)nc12` [sildenafil], in series [1], the duration of effect entry was “about 4 hours”, the onset of action is 30 to 60 min and the “share of patients with adequate response” value is listed as “about 70%”.

On to “Ac-Nle-c[Asp-His-DPhe-Arg-Trp-Lys]-NH2 [MT-II]”, for which, in series [2] (in vivo), the duration of action entry was “approximately 2.5 hours” and the “time to onset of erection” value was 10 to 20 min. Also, the “absorption into the systemic circulation” value in series [2] (in vivo, po) was “not absorbed into the systemic circulation”. Further, in series [2] (injected intramuscularly or subcutaneously), the response rate was 75%. In the series with rodents, the “effect on food intake” value was “reduces food intake”.

SHU-9119: in the series on rodents, the “effect on food intake” value was “reverses this effect and can induce hyperphagia”.
